Assay results reported in patent publication US10202361B2, “Pyridazinones as herbicides” (E I DU PONT DE NEMOURS AND COMPANY, priority 2014, dated 2019).
Like-named read-outs stand apart in the source and are kept apart here.

Assays:
Format in all cases: in vivo
[1] = test system: barnyardgrass (Echinochloa crus-galli); assay: Test B flooded paddy test; settings: Echinochloa crus-galli, 312 h; Flood, 125 g ai/ha; scale of 0 to 100, 0 is no effect, 100 is complete control; 13 to 15 d; read-out: Plant response rating, Barnyardgrass
Method in brief: (§1)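 Plants at the 2-leaf stage were flooded to 3 cm and treated by applying compound directly to the paddy water, with depth held constant throughout. After 13–15 d in a greenhouse, injury was rated visually against controls on a 0 (no effect) to 100 (complete control) scale.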

[2] = test system: ducksalad (Heteranthera limosa); assay: Test B flooded paddy test; settings: Heteranthera limosa, 312 h; Flood, 125 g ai/ha; scale of 0 to 100, 0 is no effect, 100 is complete control; 13 to 15 d; read-out: Plant response rating, Ducksalad
Method in brief: as §1

corn (Zea mays) = assay: Test C pre-/postemergence greenhouse herbicide test; settings: Zea mays, Corn, read-out: Plant response rating; for plant injury at 31 g/ha: 31 g ai/ha; for plant injury at 62 g/ha: 62 g ai/ha; for plant injury at 125 g/ha: 125 g ai/ha; for plant injury at 250 g/ha: 250 g ai/ha
From the text: (§2) Seeds of plant species selected from blackgrass (Alopecurus myosuroides), bromegrass, downy (downy bromegrass, Bromus tectorum), foxtail, green (green foxtail, Setaria viridis), ryegrass, Italian (Italian ryegrass, Lolium multiflorum), wheat (winter wheat, Triticum aestivum), oat, wild (wild oat, Avena fatua), galium (catchweed bedstraw, Galium aparine), bermudagrass (Cynodon dactylon), surinam grass (Brachiaria decumbens), cocklebur (common cocklebur, Xanthium strumarium), corn (Zea mays), crabgrass, large (large crabgrass, Digitaria sanguinalis), cupgrass, woolly (woolly cupgrass, Eriochloa villosa), foxtail, giant (giant foxtail, Setaria faberii), goosegrass (Eleusine indica), johnsongrass (Sorghum halepense), kochia (Kochia scoparia), lambsquarters (Chenopodium album), morningglory (Ipomoea coccinea), nightshade (eastern black nightshade, Solanum ptycanthum), nutsedge, yellow (yellow nutsedge, Cyperus esculentus), pigweed (Amaranthus retroflexus), ragweed (common ragweed, Ambrosia elatior), soybean (Glycine max), sunflower (common oilseed sunflower, Helianthus annuus), Russian thistle (Salsola kali), barnyardgrass (Echinochloa crus-galli), oilseed rape (Brassica napus), waterhemp (common waterhemp, Amaranthus rudis), and velvetleaf (Abutilon theophrasti) were planted into a blend of loam soil and sand and treated preemergence with test chemicals formulated in a non-phytotoxic solvent mixture which included a surfactant.
(§3) At the same time, plants selected from these crop and weed species and also barley (winter barley, Hordeum vulgare), canarygrass (Phalaris minor), windgrass (Apera spica-venti), deadnettle (henbit deadnettle, Lamium amplexicaule), and chickweed (common chickweed, Stellaria media) were planted in pots containing Redi-Earth® planting medium (Scotts Company, 14111 Scottslawn Road, Marysville, Ohio 43041) comprising spaghnum peat moss, vermiculite, wetting agent and starter nutrients and treated with postemergence applications of test chemicals formulated in the same manner. Plants ranged in height from 2 to 18 cm (1- to 4-leaf stage) for postemergence treatments. Treated plants and controls were maintained in a greenhouse for 13 to 15 d, after which time all species were compared to controls and visually evaluated. Plant response ratings, summarized in Table C, are based on a scale of 0 to 100 where 0 is no effect and 100 is complete control. A dash (-) response means no test result.

[3] = test system: foxtail, giant (giant foxtail, Setaria faberii); assay: as above; settings: Setaria faberi, Foxtail, Giant, read-out: Plant response rating; for pest or weed control at 31 g/ha: 31 g ai/ha; for pest or weed control at 62 g/ha: 62 g ai/ha; for pest or weed control at 125 g/ha: 125 g ai/ha; for pest or weed control at 250 g/ha: 250 g ai/ha
From the text: as §2, §3

[4] = test system: johnsongrass (Sorghum halepense); assay: as above; settings: Sorghum halepense, Johnsongrass, read-out: Plant response rating; for pest or weed control at 31 g/ha: 31 g ai/ha; for pest or weed control at 62 g/ha: 62 g ai/ha; for pest or weed control at 125 g/ha: 125 g ai/ha; for pest or weed control at 250 g/ha: 250 g ai/ha
From the text: as §2, §3

[5] = test system: lambsquarters (Chenopodium album); assay: as above
From the text: as §2, §3

[6] = test system: nutsedge, yellow (yellow nutsedge, Cyperus esculentus); assay: as above; settings: Cyperus, Nutsedge, Yellow, read-out: Plant response rating; for pest or weed control at 31 g/ha: 31 g ai/ha; for pest or weed control at 62 g/ha: 62 g ai/ha; for pest or weed control at 125 g/ha: 125 g ai/ha; for pest or weed control at 250 g/ha: 250 g ai/ha
From the text: as §2, §3

[7] = test system: oilseed rape (Brassica napus); assay: as above; settings: Oilseed Rape
From the text: as §2, §3

[8] = test system: pigweed (Amaranthus retroflexus); assay: as above; settings: Amaranthus retroflexus, Pigweed, read-out: Plant response rating; for pest or weed control at 31 g/ha: 31 g ai/ha; for pest or weed control at 62 g/ha: 62 g ai/ha; for pest or weed control at 125 g/ha: 125 g ai/ha; for pest or weed control at 250 g/ha: 250 g ai/ha
From the text: as §2, §3

soybean (Glycine max) = assay: as above; settings: Glycine max, Soybean, read-out: Plant response rating; for plant injury at 62 g/ha: 62 g ai/ha; for plant injury at 125 g/ha: 125 g ai/ha; for plant injury at 250 g/ha: 250 g ai/ha
From the text: as §2, §3

[9] = test system: velvetleaf (Abutilon theophrasti); assay: as above; settings: Abutilon theophrasti, Velvetleaf, read-out: Plant response rating; for pest or weed control at 62 g/ha: 62 g ai/ha; for pest or weed control at 125 g/ha: 125 g ai/ha; for pest or weed control at 250 g/ha: 250 g ai/ha
From the text: as §2, §3

[10] = post-emergence, Postemergence, 31 g ai/ha

SMILES: Cc1cc(=O)n(-c2ccc(F)cc2)nc1Cc1ccnc(C(F)(F)F)c1 [Compound 1, 2-(4-fluorophenyl)-5-methyl-6-[[2-(trifluoromethyl)-4-pyridinyl]methyl]-3(2H)-pyridazinone]
- pest or weed control at 125 g/ha [1]: 10%
- pest or weed control at 125 g/ha [2]: 60%
- plant injury at 31 g/ha (corn (Zea mays); post-emergence, Postemergence): 5%
- plant injury at 62 g/ha (corn (Zea mays); post-emergence, Postemergence): 5%
- plant injury at 125 g/ha (corn (Zea mays); post-emergence, Postemergence): 5%
- plant injury at 250 g/ha (corn (Zea mays); post-emergence, Postemergence): 10%
- plant injury at 31 g/ha (corn (Zea mays); pre-emergence, Preemergence): 15%
- plant injury at 62 g/ha (corn (Zea mays); pre-emergence, Preemergence): 50%
- plant injury at 125 g/ha (corn (Zea mays); pre-emergence, Preemergence): 90%
- plant injury at 250 g/ha (corn (Zea mays); pre-emergence, Preemergence): 95%
- pest or weed control at 31 g/ha ([3]; post-emergence, Postemergence): 10%
- pest or weed control at 62 g/ha ([3]; post-emergence, Postemergence): 10%
- pest or weed control at 125 g/ha ([3]; post-emergence, Postemergence): 15%
- pest or weed control at 250 g/ha ([3]; post-emergence, Postemergence): 20%
- pest or weed control at 31 g/ha ([3]; pre-emergence, Preemergence): 100%
- pest or weed control at 62 g/ha ([3]; pre-emergence, Preemergence): 100%
- pest or weed control at 125 g/ha ([3]; pre-emergence, Preemergence): 100%
- pest or weed control at 250 g/ha ([3]; pre-emergence, Preemergence): 100%
- pest or weed control at 31 g/ha ([4]; post-emergence, Postemergence): 5%
- pest or weed control at 62 g/ha ([4]; post-emergence, Postemergence): 5%
- pest or weed control at 125 g/ha ([4]; post-emergence, Postemergence): 5%
- pest or weed control at 250 g/ha ([4]; post-emergence, Postemergence): 5%
- pest or weed control at 31 g/ha ([4]; pre-emergence, Preemergence): 35%
- pest or weed control at 62 g/ha ([4]; pre-emergence, Preemergence): 60%
- pest or weed control at 125 g/ha ([4]; pre-emergence, Preemergence): 85%
- pest or weed control at 250 g/ha ([4]; pre-emergence, Preemergence): 100%
- Plant response rating ([5]; Postemergence, 31 g ai/ha): 60
- Plant response rating ([5]; Postemergence, 125 g ai/ha): 65
- Plant response rating ([5]; Postemergence, 250 g ai/ha): 75
- Plant response rating ([5]; Preemergence, 31 g ai/ha): 100
- Plant response rating ([5]; Preemergence, 62 g ai/ha): 100
- Plant response rating ([5]; Preemergence, 125 g ai/ha): 100
- Plant response rating ([5]; Preemergence, 250 g ai/ha): 100
- pest or weed control at 31 g/ha ([6]; post-emergence, Postemergence): 0%
- pest or weed control at 62 g/ha ([6]; post-emergence, Postemergence): 5%
- pest or weed control at 125 g/ha ([6]; post-emergence, Postemergence): 5%
- pest or weed control at 250 g/ha ([6]; post-emergence, Postemergence): 5%
- pest or weed control at 31 g/ha ([6]; pre-emergence, Preemergence): 10%
- pest or weed control at 62 g/ha ([6]; pre-emergence, Preemergence): 30%
- pest or weed control at 125 g/ha ([6]; pre-emergence, Preemergence): 50%
- pest or weed control at 250 g/ha ([6]; pre-emergence, Preemergence): 55%
- Plant response rating ([7]; Postemergence, 31 g ai/ha): 5
- Plant response rating ([7]; Postemergence, 62 g ai/ha): 5
- Plant response rating ([7]; Postemergence, 125 g ai/ha): 10
- Plant response rating ([7]; Postemergence, 250 g ai/ha): 30
- Plant response rating ([7]; Preemergence, 31 g ai/ha): 30
- Plant response rating ([7]; Preemergence, 62 g ai/ha): 80
- Plant response rating ([7]; Preemergence, 125 g ai/ha): 100
- Plant response rating ([7]; Preemergence, 250 g ai/ha): 100
- pest or weed control at 31 g/ha ([8]; post-emergence, Postemergence): 35%
- pest or weed control at 62 g/ha ([8]; post-emergence, Postemergence): 55%
- pest or weed control at 125 g/ha ([8]; post-emergence, Postemergence): 65%
- pest or weed control at 250 g/ha ([8]; post-emergence, Postemergence): 85%
- pest or weed control at 31 g/ha ([8]; pre-emergence, Preemergence): 100%
- pest or weed control at 62 g/ha ([8]; pre-emergence, Preemergence): 100%
- pest or weed control at 125 g/ha ([8]; pre-emergence, Preemergence): 100%
- pest or weed control at 250 g/ha ([8]; pre-emergence, Preemergence): 100%
- plant injury at 31 g/ha (soybean (Glycine max); [10]): 35%
- plant injury at 62 g/ha (soybean (Glycine max); post-emergence, Postemergence): 40%
- plant injury at 125 g/ha (soybean (Glycine max); post-emergence, Postemergence): 50%
- plant injury at 250 g/ha (soybean (Glycine max); post-emergence, Postemergence): 70%
- plant injury at 62 g/ha (soybean (Glycine max); pre-emergence, Preemergence): 60%
- plant injury at 125 g/ha (soybean (Glycine max); pre-emergence, Preemergence): 95%
- plant injury at 250 g/ha (soybean (Glycine max); pre-emergence, Preemergence): 98%
- pest or weed control at 31 g/ha [9, 10]: 10%
- pest or weed control at 62 g/ha ([9]; post-emergence, Postemergence): 20%
- pest or weed control at 125 g/ha ([9]; post-emergence, Postemergence): 20%
- pest or weed control at 250 g/ha ([9]; post-emergence, Postemergence): 30%
- pest or weed control at 62 g/ha ([9]; pre-emergence, Preemergence): 35%
- pest or weed control at 125 g/ha ([9]; pre-emergence, Preemergence): 40%
- pest or weed control at 250 g/ha ([9]; pre-emergence, Preemergence): 100%
